Experimental data: ChEMBL document CHEMBL3621110, “Discovery and Development of the Aryl O-Sulfamate Pharmacophore for Oncology and Women's Health” (J Med Chem, 2015)
pIC50, pKi: −log10 of the molar value.

Legend:
Rattus norvegicus [1] = species on record: Rattus norvegicus; assay: animal or person; assay type: functional; conditions: Wistar, Liver, po
Rattus norvegicus [2] = species on record: Rattus norvegicus; assay: animal or person; assay type: functional; conditions: Wistar, po, 3 h
Aromatase = biological target: T1, Aromatase (Homo sapiens, UniProt P11511)
T1 sequence (P11511 whole entry): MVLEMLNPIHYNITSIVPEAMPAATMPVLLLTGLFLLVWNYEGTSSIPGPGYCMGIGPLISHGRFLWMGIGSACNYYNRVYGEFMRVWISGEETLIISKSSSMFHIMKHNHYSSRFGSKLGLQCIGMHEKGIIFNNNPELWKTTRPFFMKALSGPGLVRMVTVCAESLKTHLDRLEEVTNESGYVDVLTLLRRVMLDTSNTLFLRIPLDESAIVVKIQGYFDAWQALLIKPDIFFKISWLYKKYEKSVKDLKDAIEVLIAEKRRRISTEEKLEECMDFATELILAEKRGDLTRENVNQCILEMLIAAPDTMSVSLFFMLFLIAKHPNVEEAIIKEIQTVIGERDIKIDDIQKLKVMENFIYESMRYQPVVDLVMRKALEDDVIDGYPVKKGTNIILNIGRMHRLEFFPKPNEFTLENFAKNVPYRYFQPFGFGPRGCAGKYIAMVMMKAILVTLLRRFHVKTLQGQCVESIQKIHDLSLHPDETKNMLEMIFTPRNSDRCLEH

MCF7 [3] = assay: animal or person; assay type: functional, Homo sapiens; conditions: Mus musculus, MCF7, po
MCF7 [4] = assay: animal or person; assay type: functional, Homo sapiens; conditions: Mus musculus, MCF7, po; remark: listed apart in the source
4T1 [5] = assay: animal or person; assay type: functional; conditions: Mus musculus
4T1 [6] = assay: animal or person; assay type: functional; conditions: Mus musculus; remark: listed apart in the source
MDA-MB-231 [7] = assay: animal or person; assay type: functional, Homo sapiens; conditions: Mus musculus
MDA-MB-231 [8] = assay: animal or person; assay type: functional, Homo sapiens; conditions: Mus musculus; remark: listed apart in the source
in vivo [9] = conditions: mouse, po, 10 mg/kg
in vivo [10] = conditions: MF1, mouse
in vivo [11] = conditions: MF1, mouse; remark: listed apart in the source
in vivo [12] = conditions: MF1, mouse; remark: listed apart in the source
in vivo [13] = conditions: MF1, mouse; remark: listed apart in the source
Steryl-sulfatase [14] = biological target: T2, Steryl-sulfatase (Homo sapiens, UniProt P08842); set-up: species or system Placenta, Microsome
T2 sequence (P08842 whole entry): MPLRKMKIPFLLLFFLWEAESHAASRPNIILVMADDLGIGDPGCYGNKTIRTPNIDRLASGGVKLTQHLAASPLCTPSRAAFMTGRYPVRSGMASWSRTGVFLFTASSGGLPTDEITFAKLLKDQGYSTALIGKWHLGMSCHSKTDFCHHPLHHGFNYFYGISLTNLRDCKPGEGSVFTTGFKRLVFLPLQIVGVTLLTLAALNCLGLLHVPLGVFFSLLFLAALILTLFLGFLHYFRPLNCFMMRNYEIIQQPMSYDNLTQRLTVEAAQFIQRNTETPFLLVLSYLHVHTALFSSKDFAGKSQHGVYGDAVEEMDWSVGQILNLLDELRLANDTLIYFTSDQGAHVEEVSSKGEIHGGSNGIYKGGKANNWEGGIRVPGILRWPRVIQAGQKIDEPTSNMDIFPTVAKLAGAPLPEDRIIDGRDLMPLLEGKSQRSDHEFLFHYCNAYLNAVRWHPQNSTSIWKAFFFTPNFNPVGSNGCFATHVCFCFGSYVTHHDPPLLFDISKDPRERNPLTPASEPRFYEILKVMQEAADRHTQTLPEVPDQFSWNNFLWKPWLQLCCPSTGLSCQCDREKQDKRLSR

Homo sapiens [15] = species on record: Homo sapiens; assay type: functional; conditions: at 5 mg/day
Homo sapiens [16] = species on record: Homo sapiens; assay type: functional; conditions: at 80 mg/day
MCF7 [17] = assay: animal or person; assay type: functional, Homo sapiens; conditions: Mus musculus, MCF7, po, 1176 h
MCF7 [18] = assay: animal or person; assay type: functional, Homo sapiens; conditions: Mus musculus, MCF7, po, 1176 h; remark: listed apart in the source
in vivo [19] = conditions: Wistar, rat, po, 10 mg/kg
Steryl-sulfatase [20] = biological target: T2, Steryl-sulfatase; assay type: microsomes, Placenta, Microsome
Rattus norvegicus [21] = species on record: Rattus norvegicus; assay: animal or person; assay type: functional; conditions: Liver, po, 120 h
MCF7 [22] = assay: animal or person; assay type: functional, Homo sapiens; conditions: Mus musculus, MCF7, po, 1176 h; remark: listed apart in the source
MCF7 [23] = assay: animal or person; assay type: functional, Homo sapiens; conditions: Mus musculus, MCF7, po, 1176 h; remark: listed apart in the source
DU-145 [24] = assay: cells; assay type: functional; conditions: Homo sapiens
MDA-MB-231 [25] = assay: cells; assay type: functional; conditions: Homo sapiens
MDA-MB-231 [26] = assay: animal or person; assay type: functional, Homo sapiens; conditions: Mus musculus, MDA-MB-231, po, 840 h
Steryl-sulfatase [27] = biological target: T2, Steryl-sulfatase
Steryl-sulfatase [28] = biological target: T2, Steryl-sulfatase; assay type: cell-based, HEK293
Estrogen receptor = biological target: T3, Estrogen receptor (Homo sapiens, UniProt P03372)
T3 sequence (P03372 whole entry): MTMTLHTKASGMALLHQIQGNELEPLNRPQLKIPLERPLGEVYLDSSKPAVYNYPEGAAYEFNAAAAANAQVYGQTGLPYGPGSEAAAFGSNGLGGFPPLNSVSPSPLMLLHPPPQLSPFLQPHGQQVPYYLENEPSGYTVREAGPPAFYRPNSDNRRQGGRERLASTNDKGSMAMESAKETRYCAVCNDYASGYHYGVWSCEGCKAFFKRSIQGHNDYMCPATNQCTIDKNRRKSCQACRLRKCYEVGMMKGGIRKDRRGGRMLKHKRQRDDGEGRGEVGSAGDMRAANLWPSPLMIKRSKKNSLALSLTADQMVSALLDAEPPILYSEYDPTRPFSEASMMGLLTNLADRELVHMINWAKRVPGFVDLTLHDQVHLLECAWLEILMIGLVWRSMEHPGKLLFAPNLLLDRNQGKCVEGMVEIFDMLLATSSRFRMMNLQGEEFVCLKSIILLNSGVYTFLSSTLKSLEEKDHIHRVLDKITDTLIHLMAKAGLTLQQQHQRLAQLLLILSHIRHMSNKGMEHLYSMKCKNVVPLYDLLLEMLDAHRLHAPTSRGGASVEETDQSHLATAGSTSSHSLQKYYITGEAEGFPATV

DU-145 [29] = assay: cells; assay type: functional; conditions: Homo sapiens, DU-145, 96 h
MDA-MB-231 [30] = assay: cells; assay type: functional; conditions: Homo sapiens, MDA-MB-231, 96 h
Carbonic anhydrase 2 = Carbonic anhydrase 2 (Homo sapiens, UniProt P00918)
Rattus norvegicus [31] = species on record: Rattus norvegicus; assay: animal or person; assay type: functional; conditions: Wistar, Liver, po, 24 h
Rattus norvegicus [32] = species on record: Rattus norvegicus; assay: animal or person; assay type: functional; conditions: Wistar, Liver, po, 24 h; remark: listed apart in the source
Rattus norvegicus [33] = species on record: Rattus norvegicus; assay: animal or person; assay type: functional; conditions: Wistar, Liver, sc, 168 h
Rattus norvegicus [34] = species on record: Rattus norvegicus; assay: animal or person; assay type: functional; conditions: Wistar, Liver, sc, 168 h; remark: listed apart in the source
Rattus norvegicus [35] = species on record: Rattus norvegicus; assay: animal or person; assay type: functional; conditions: Liver, po, 2 h
Rattus norvegicus [36] = species on record: Rattus norvegicus; assay: animal or person; assay type: functional; conditions: Liver, po, 2 h; remark: listed apart in the source
Rattus norvegicus [37] = species on record: Rattus norvegicus; assay: animal or person; assay type: functional; conditions: Liver, po, 2 h; remark: listed apart in the source
Rattus norvegicus [38] = species on record: Rattus norvegicus; assay: animal or person; assay type: functional; conditions: po, 2 h
Rattus norvegicus [39] = species on record: Rattus norvegicus; assay: animal or person; assay type: functional; conditions: po, 2 h; remark: listed apart in the source
Rattus norvegicus [40] = species on record: Rattus norvegicus; assay: animal or person; assay type: functional; conditions: po, 2 h; remark: listed apart in the source
MCF7 [41] = assay: cells; assay type: functional; conditions: Homo sapiens
Homo sapiens [42] = species on record: Homo sapiens; assay type: functional
Homo sapiens [43] = species on record: Homo sapiens; assay type: functional; remark: listed apart in the source
Homo sapiens [44] = species on record: Homo sapiens; assay type: functional; remark: listed apart in the source
Homo sapiens [45] = species on record: Homo sapiens; assay type: functional; remark: listed apart in the source

N#Cc1ccc(N(Cc2ccc(Br)cc2)n2cnnc2)cc1
inhibition in vivo at 10 mg/kg (Rattus norvegicus [1]): ≥ 98%
inhibition in vivo at 10 mg/kg (Rattus norvegicus [2]): 70%
pIC50 (Aromatase): 9.92

COc1cc2c(cc1OS(N)(=O)=O)CC[C@@H]1[C@@H]2CC[C@]2(C)[C@@H](OS(N)(=O)=O)CC[C@@H]12
inhibition in vivo at 20 mg/kg (MCF7 [3]): 52%
inhibition in vivo at 5 mg/kg (MCF7 [4]): 46%
inhibition in vivo at 20 mg/kg/day (4T1 [5]): 80.4%
inhibition in vivo at 20 mg/kg/day (4T1 [6]): 35%
ED50 (MDA-MB-231 [7]): 10 mg/kg
ED50 (MDA-MB-231 [8]): 20 mg/kg
bioavailability at 24 h (in vivo [9]): 85%
LD50 (in vivo [10]): 30 mg/kg
selectivity ratio (in vivo [11]): 3
LD50 (in vivo [12]): 80 mg/kg
selectivity ratio (in vivo [13]): 4

NS(=O)(=O)Oc1ccc2c(c1)OC(=O)C1CCCCCC21 (stereo not drawn)
pIC50 (Steryl-sulfatase [14]): 8.10
inhibition (INH) (Homo sapiens [15]): >=95%
inhibition (INH) (Homo sapiens [16]): >=95%
inhibition in vivo at 20 mg/kg (MCF7 [17]): 39%
inhibition in vivo at 20 mg/kg (MCF7 [18]): 79%
bioavailability (in vivo [19]): 95%

CCCN1C(=O)C[C@H]2[C@@H]3CCc4cc(OS(N)(=O)=O)ccc4[C@H]3CC[C@]2(C)C1=O
pIC50 (Steryl-sulfatase [20]): 9.00
inhibition in vivo at 10 mg/kg/day (Rattus norvegicus [21]): 99%
inhibition in vivo at 10 mg/kg (MCF7 [22]): 56%
inhibition in vivo at 10 mg/kg (MCF7 [23]): 39%

COc1cc2c(cc1OS(N)(=O)=O)CCN(Cc1cc(OC)c(OC)c(OC)c1)C2
GI50 (DU-145 [24]): 297 nM
GI50 (MDA-MB-231 [25]): 329 nM
inhibition in vivo at 20 mg/kg/day (MDA-MB-231 [26]): 84%

CC(C)(C#N)c1cc(Cn2cncn2)cc(Sc2ccc(OS(N)(=O)=O)c(Cl)c2)c1
pIC50 (Steryl-sulfatase [27]): 5.52

CCN(Cc1ccc(C(=O)N2CCc3ccc(OS(N)(=O)=O)cc3C2)cc1)Cc1ccccn1
pIC50 (Steryl-sulfatase [28]): 6.52
pIC50 (Estrogen receptor): 5.51

CCN(CC)CCOCC[C@@]1(C)CC[C@H]2[C@@H]3[C@H](C)Cc4cc(OS(N)(=O)=O)ccc4[C@H]3CC[C@@]21C
GI50 (DU-145 [29]): 51 nM
GI50 (MDA-MB-231 [30]): 71 nM

CCc1cc2c(cc1OS(N)(=O)=O)CC[C@@H]1[C@@H]2CC[C@]2(C)[C@@H](OS(N)(=O)=O)CC[C@@H]12
pKi (Carbonic anhydrase 2): 6.63

NS(=O)(=O)Oc1ccc(C(=O)c2ccc(OS(N)(=O)=O)cc2)cc1
inhibition in vivo at 1 mg/kg (Rattus norvegicus [31]): 84%
inhibition in vivo at 10 mg/kg (Rattus norvegicus [32]): 93%

C[C@]12CC[C@@H]3c4ccc(OS(N)(=O)=O)cc4CC[C@H]3[C@@H]1CCC2=O [EMATE]
inhibition in vivo at 0.1 mg/kg (Rattus norvegicus [33]): 87%
inhibition in vivo at 0.1 mg/kg (Rattus norvegicus [34]): 87%
inhibition in vivo at 10 mg/kg (Rattus norvegicus [35]): 98%
inhibition in vivo at 20 mg/kg (Rattus norvegicus [36]): 98%
inhibition in vivo at 40 mg/kg (Rattus norvegicus [37]): 98%
inhibition in vivo at 10 mg/kg (Rattus norvegicus [38]): 98%
inhibition in vivo at 20 mg/kg (Rattus norvegicus [39]): 98%
inhibition in vivo at 40 mg/kg (Rattus norvegicus [40]): 98%
GI50 (MCF7 [41]): 22800 nM
inhibition (INH) (Homo sapiens [42]): 41%
inhibition (INH) (Homo sapiens [43]): 72%
inhibition (INH) (Homo sapiens [44]): 50%
inhibition (INH) (Homo sapiens [45]): 34%
